# Measurements published in US20250375445A1, “METHODS OF TREATING A RAS PROTEIN-RELATED DISEASE OR DISORDER” (Revolution Medicines, Inc., priority 2024, published 2025).
# Assays:
# [1] = system: KRAS MUT (G12C, G12D, G12V); assay: 2D Cell Viability, 120 hr, KRAS MUT; type: cell-based
# KRAS WT [2] = target: T1, KRAS WT (Homo sapiens, UniProt P01116+P62937); assay: KRAS Binding of CypA:TCI (KD2), KRAS WT
# [3] = Oral bioavailability (multiple species); conditions: in vivo, read-out: Oral % F (multiple species)
# CypA = CypA (Homo sapiens, UniProt P62937); assay: CypA Binding (KD1)
# Sequence of CypA (P62937 whole entry): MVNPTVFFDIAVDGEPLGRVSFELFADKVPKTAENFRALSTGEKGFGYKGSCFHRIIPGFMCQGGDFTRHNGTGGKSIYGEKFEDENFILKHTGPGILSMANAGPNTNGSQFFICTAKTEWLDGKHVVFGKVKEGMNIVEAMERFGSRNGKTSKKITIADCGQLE
# Source text: The KD1 value of a RAS(ON) multi-selective inhibitor can be determined using methods standard in the art, including but not limited to surface plasmon resonance (SPR), Fluorescence Polarization (FP), or isothermal titration calorimetry (ITC). In a non-limiting example, the binding affinity of compounds for CypA can be assessed by SPR using, for example, a Biacore 8K instrument. CypA is immobilized on a sensor chip (e.g., a streptavidin chip), and varying RAS(ON) multi-selective inhibitor compound concentrations can be flowed over the chip in assay buffer. […] In a specific embodiment, the KD1 of a RAS(ON) multi-selective inhibitor is determined using SPR.
# The binding affinity of RAS(ON) multi-selective inhibitor compounds for CypA can also be assessed by FP competition with fluorescein tagged cyclosporine A by varying RAS(ON) multi-selective inhibitor compound concentrations. The signals can be fitted using a concentration response curve and the KD1 is calculated.
# In some embodiments, the KD1 value of a RAS(ON) multi-selective inhibitor for CypA can be determined using ITC, a label-free biophysical technique that directly measures the heat released or absorbed during molecular interactions. […] As the inhibitor binds to CypA, the heat of binding is measured after each injection. […]
# RAS WT [4] = assay: Cellular pERK (2D, 4 hr), RAS WT; type: cell-based
# [5] = system: human DUSP6 in NCI-H441 xenograft tumor; assay: NCI-H441 xenograft single dose PKPD (exposure, human DUSP6); type: in vivo, mouse; conditions: single oral dose, NCI-H441 xenograft tumor (FIG. 2)
# Procedure: (§1) All mouse studies and procedures related to animal handling, care and treatment complied with all applicable regulations and guidelines of Institutional Animal Care and Use Committee (IACUC) approvals. Female BALB/c nude mice, 6-8 weeks old were used. Animal vendor was Shanghai Sino-British Sippr/BK Laboratory Animal Co., LTD. NCI-H441 tumor cells (ATCC-HTB-174) was maintained in vitro in RPMI-1640 medium supplemented with 10% heat inactivated FBS, 100 μg/mL streptomycin. Each mouse was inoculated subcutaneously at the right flank with 2×10^6 tumor cells in 0.2 ml media/matrigel for tumor development. Efficacy treatment started when the average tumor size reached 150-200 mm^3 in size, and the single dosed PKPD treatment started when tumor size reached 300-600 mm^3. Mice in the study were weighted and tumors were measured twice weekly.
# BRAF (V600E) = assay: 2D Cell Viability, 120 hr, BRAF (V600E); type: cell-based
# NRAS WT = NRAS WT (Homo sapiens, UniProt P01111+P62937); assay: RAS-RAF Disruption, NRAS WT; type: biochemical
# Sequence of NRAS WT (P01111 whole entry): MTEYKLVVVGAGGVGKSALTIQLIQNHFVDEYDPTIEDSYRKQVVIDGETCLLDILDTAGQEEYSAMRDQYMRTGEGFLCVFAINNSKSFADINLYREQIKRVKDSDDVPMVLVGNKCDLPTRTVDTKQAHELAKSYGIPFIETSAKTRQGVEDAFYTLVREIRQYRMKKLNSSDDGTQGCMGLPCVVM
# Sequence of NRAS WT (P62937 whole entry): as the sequence (P62937 whole entry) above
# RAS WT [6] = assay: 3D Cell Viability, 120 hr, RAS WT; type: cell-based
# [7] = system: KRAS MUT (G12C, G12D, G12V); assay: RAS-RAF Disruption, KRAS MUT; type: biochemical
# [8] = system: NRAS MUT (Q61H, Q61K, Q61L, Q61R); assay: RAS-RAF Disruption, NRAS MUT; type: biochemical
# KRAS MUT (G12D, G12V) = assay: KRAS Binding of CypA:TCI (KD2), KRAS MUT
# KRAS WT [9] = target: T1, KRAS WT; assay: RAS-RAF Disruption, KRAS WT; type: biochemical
# [10] = system: KRAS MUT (G12C, G12D, G12V); assay: Cellular pERK (2D, 4 hr), KRAS MUT; type: cell-based
# [11] = system: NCI-H441 KRAS^G12V NSCLC xenograft model; assay: NCI-H441 xenograft efficacy and tolerability; type: in vivo
# Procedure: as §1
# NCI-H441 is a human lung tumor derived cell line. It harbors a KRAS^G12V mutation. It is typically grown in immune-deficient mice as a xenograft model. An NCI-H441 xenograft study was conducted in female BALB/C Nude mice. Each mouse was inoculated subcutaneously on the right flank with the single cell suspension of tumor cells (2×10^6) in 200 uL with BD Matrigel (1:1 ratio) for tumor development. Tumor width and length were measured with digital calipers, and the tumor volume in mm3 was calculated using the formula: Volume=((width)2×length)/2, where width and length are measured in mm.
# Tumor growth inhibition (TGI, %) was calculated as percentage change in tumor volume for each group 100×(Vdayxc−Vdayx)/(Vdayxc−Vdayoc), where Vday0c is the starting mean tumor volume for the vehicle group, and Vdayx and Vdayxc are the corresponding tumor volumes for treatment group and control group on day x, calculated for the duration of the study. Mean tumor regression (where applicable, Vdayx<Vday0x) was calculated using the formula 100×(Vday0x−Vdayx)/Vday0x.
# Differences in treatment arms as compared to vehicle controls were assessed by an ordinary one-way ANOVA of tumor volumes along with multiple comparisons via a post-hoc Tukey's test in GraphPad Prism software. Note, in some studies, additional test articles/groups (not reported here) were included and statistical analyses (ANOVA, post-hoc within group comparisons) were conducted on all treatment groups to allow for any interactions. The statistical significance values reported here represent the output of such analyses for RMC-6236 treatment arm.
# RAS mutant NSCLC or PDAC = assay: Phase I study of RMC-6236 (NCT05379985); type: in vivo, human
# [12] = Half-life after oral administration to patients; conditions: human, in vivo
# [13] = Tolerability by dosing schedule in preclinical models
# [14] = system: Capan-2, KRAS^G12V PDAC CDX model; assay: Capan-2 xenograft efficacy and tolerability; type: in vivo, mouse
# Procedure: Capan-2 is a human pancreatic adenocarcinoma derived cell line. It harbors a KRAS^G12V mutation. It is typically grown in immune-deficient mice as a xenograft model. A Capan-2 xenograft study was conducted in female BALB/C Nude mice. Each mouse was inoculated subcutaneously on the right flank with the single cell suspension of tumor cells (4×10^6) in 100 uL RPMI 1640/Matrigel mixture (1:1 ratio) for tumor development. Tumor width and length were measured with digital calipers, and the tumor volume in mm3 was calculated using the formula: Volume=((width)2×length)/2, where width and length are measured in mm. Tumor growth inhibition (TGI, %) was calculated as percentage change in tumor volume for each group 100×(Vdayxc−Vdayx)/(Vdayxc−Vday0c), where Vday0c is the starting mean tumor volume for the vehicle group, and Vdayx and Vdayxc are the corresponding tumor volumes for treatment group and control group on day x, calculated for the duration of the study. Mean tumor regression (where applicable, Vdayx<Vday0x) was calculated using the formula 100×(Vday0x−Vdayx)/Vday0x.
# [15] = patients with RAS mutant NSCLC or PDAC
# [16] = 25 mg/kg daily, 50 mg/kg daily, 50 mg/kg Q2D and 100 mg/kg Q2D (FIG. 3)
# T1 sequence (P01116 1-188 isoform P01116-2): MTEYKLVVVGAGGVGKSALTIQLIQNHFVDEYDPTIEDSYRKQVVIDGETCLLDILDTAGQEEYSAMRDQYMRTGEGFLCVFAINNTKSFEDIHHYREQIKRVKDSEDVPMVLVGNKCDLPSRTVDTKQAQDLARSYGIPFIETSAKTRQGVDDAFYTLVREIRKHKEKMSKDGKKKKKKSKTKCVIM
# T1 sequence (P62937 whole entry): as the sequence (P62937 whole entry) above
SMILES,IC50 [1],Kd (KRAS WT [2]),bioavailability [3],Kd (CypA),IC50 (RAS WT [4]),time of maximum DUSP6 suppression post single dose [5],IC50 (BRAF (V600E)),IC50 (NRAS WT),IC50 (RAS WT [6]),IC50 [7],IC50 [8],"Kd (KRAS MUT (G12D, G12V))",IC50 (KRAS WT [9]),IC50 [10],other results
"CCn1c(-c2cc(N3CCN(C4CC4)CC3)cnc2[C@H](C)OC)c2c3cc(ccc31)-c1csc(n1)C[C@H](CC(=O)[C@H]1[C@@H]3COC[C@@H]31)C(=O)N1CCC[C@H](N1)C(=O)OCC(C)(C)C2 (atropisomer, axis not shown) [RMC-7977]",0.8 to 4.9 nM,116 nM,60%,216 nM,1.7 nM,8 h,8360 nM,57 nM,1.9 nM,31 to 175 nM,48 to 144 nM,111 to 435 nM,76 nM,0.5 to 4.1 nM,
"CCn1c(-c2cc(N3CCN(C)CC3)cnc2[C@H](C)OC)c2c3cc(ccc31)-c1csc(n1)C[C@H](NC(=O)[C@H]1C[C@@H]1C)C(=O)N1CCC[C@H](N1)C(=O)OCC(C)(C)C2 (atropisomer, axis not shown) [RMC-6236, daraxonrasib]",1 to 3.1 nM,,24 to 33%,,1.5 nM,8 h,7210 nM,,1.4 nM,35 to 229 nM,57 to 204 nM,131 to 364 nM,,0.4 to 3.6 nM,"decrease in tumor volume ([11]; 25 mg/kg (Q2D) (FIG. 1)): lower decreases in tumor volume; tumor regression ([11]; 25 mg/kg QD, NCI-H441 model (FIG. 6)): 88%; tumor regression ([11]; 100 mg/kg Q2D, NCI-H441 model (FIG. 6)): 89%; tumor regression ([11]; 100 mpk with increased interval of dosing, NCI-H441 model (FIG. 6)): 68%; tolerability, body weight ([11]; all doses and regimens of FIG. 6): without any significant body weight loss; tolerability ([11]; all regimens of FIG. 4 and FIG. 5): tolerated in vivo; most common treatment-related adverse events (TRAEs) (RAS mutant NSCLC or PDAC): rash and GI-related toxicities; antitumor activity (RAS mutant NSCLC or PDAC; [15]): encouraging antitumor activity; safety profile (RAS mutant NSCLC or PDAC; [15]): acceptable safety profile; half-life [12]: ~10 h; body weight loss and tolerability ([13]; BID dosing): more severe body weight loss and intolerability; tolerated dose level ([13]; Q2D dosing): allows higher dose levels to be tolerated; body weight loss ([13]; Q2D dosing at an equivalent dose of QD dosing): slightly improves the body weight loss; tumor regression ([14]; 25 mg/kg QD, Capan-2 (FIG. 7)): 53%; tumor regression ([14]; 35 mg/kg 5on2off, Capan-2 (FIG. 7)): 28%; tumor regression ([14]; 40 mg/kg 4on3off, Capan-2 (FIG. 7)): 27%; tumor regression ([14]; 50 mg/kg Q2D, Capan-2 (FIG. 7)): 51%; tolerability, body weight ([14]; all tested doses and regimens, Capan-2 (FIG. 7)): without any significant body weight loss; tumor growth inhibition ([14]; all tested doses and regimens, oral administration (FIG. 7)): Tumor growth inhibition was observed"
"CCn1c(-c2cc(N3CCN(C)CC3)cnc2[C@H](C)OC)c2c3cc(ccc31)-c1csc(n1)C[C@H](NC(=O)[C@H](C(C)C)N(C)C(=O)N(C)C)C(=O)N1CCC[C@H](N1)C(=O)OCC(C)(C)C2 (atropisomer, axis not shown) [Compound A]",0.2 to 1.2 nM,81 nM,20 to 38%,12 nM,0.4 nM,24 h,1880 nM,33 nM,0.4 nM,23 to 165 nM,18 to 109 nM,,42 nM,0.3 to 1 nM,"tolerability (dosing holidays) [11, 16]: all treatment groups require some dosing holidays towards the end; tumor regression [11, 16]: the same tumor regression"
